For six compounds, IC50, EC50 and AC50 results are on record in ChEMBL document CHEMBL1201862, “PubChem BioAssay data set” (2004).

The structures appear in SMILES notation. Activity calls are given as the source filed them.

The target of one assay is NADPH oxidase 1 (Homo sapiens, UniProt Q9Y5S8). Format: functional, cell-based.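 Also: Cell-based assay with luminescence read-out, IC50 derived from inhibitor dose-response curves; intracellular ROS from endogenous NOX1 in intact HT29 colon cancer cells; potency of inhibitors that lower the ROS luminescence signal.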
Sequence of NADPH oxidase 1 (Q9Y5S8 whole entry): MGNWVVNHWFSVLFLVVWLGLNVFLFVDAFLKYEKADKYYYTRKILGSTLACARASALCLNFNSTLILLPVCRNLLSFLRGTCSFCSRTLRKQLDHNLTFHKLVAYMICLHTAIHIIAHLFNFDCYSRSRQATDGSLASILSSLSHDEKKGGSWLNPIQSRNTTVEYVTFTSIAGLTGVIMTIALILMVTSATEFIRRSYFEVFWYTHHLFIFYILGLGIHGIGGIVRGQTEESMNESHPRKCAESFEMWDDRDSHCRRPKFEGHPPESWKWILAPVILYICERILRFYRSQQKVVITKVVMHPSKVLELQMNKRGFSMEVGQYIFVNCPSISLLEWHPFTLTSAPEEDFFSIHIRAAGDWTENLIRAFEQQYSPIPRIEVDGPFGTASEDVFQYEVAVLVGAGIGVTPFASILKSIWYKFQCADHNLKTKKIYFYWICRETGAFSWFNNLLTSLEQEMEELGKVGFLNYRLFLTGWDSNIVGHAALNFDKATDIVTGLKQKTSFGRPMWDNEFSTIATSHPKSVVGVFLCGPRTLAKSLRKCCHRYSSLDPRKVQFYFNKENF
Assay [1] addresses Inward rectifier potassium channel 2 (Mus musculus, UniProt P35561). Briefly: Manual electrophysiological patch clamp assay for SAR compounds that inhibit/block inward-rectifying potassium ion channel Kir2.1. [Related pubchem assays: 1843 (Summary assay for Kir2.1 inhibitor assays.), 1672 (Primary HTS of 305616 compounds where 2592 were identified as active.)]. Format: functional.

A short description of assay [2]: NIH-3T3 fibroblast cytotoxicity, dose response, cytotoxicity control, cell-based, fluorescence, Alamar Blue, secondary assay (AID 2327).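 Also: NIH-3T3 mouse fibroblasts cultured with fluconazole at 8 µg/mL.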 Format: functional.
Assay [3] addresses T1, Neuropeptide Y receptor type 2 (Homo sapiens, UniProt P49146).
T1 sequence (P49146 whole entry): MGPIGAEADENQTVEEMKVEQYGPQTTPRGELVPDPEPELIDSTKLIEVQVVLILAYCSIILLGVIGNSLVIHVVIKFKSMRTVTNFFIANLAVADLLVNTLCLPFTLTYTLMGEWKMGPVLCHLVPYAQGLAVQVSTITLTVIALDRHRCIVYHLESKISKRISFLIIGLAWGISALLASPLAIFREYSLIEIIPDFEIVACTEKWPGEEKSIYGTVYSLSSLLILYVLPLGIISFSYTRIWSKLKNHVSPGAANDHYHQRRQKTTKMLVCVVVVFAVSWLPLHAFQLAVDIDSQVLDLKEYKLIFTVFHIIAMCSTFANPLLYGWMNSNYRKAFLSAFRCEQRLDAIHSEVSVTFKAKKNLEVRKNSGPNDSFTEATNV
The assay can be described thus: IC50 for human NPY-Y2 blockade – cell-based, counter-screen for NPY-Y1 antagonist project, dose response (AID 1278). It counts as functional. (A counterscreen serves to expose hits that act by an unwanted route or on another target.)

Assay [4] addresses T2, Neuropeptide Y receptor type 1 (Homo sapiens, UniProt P25929).
T2 sequence (P25929 whole entry): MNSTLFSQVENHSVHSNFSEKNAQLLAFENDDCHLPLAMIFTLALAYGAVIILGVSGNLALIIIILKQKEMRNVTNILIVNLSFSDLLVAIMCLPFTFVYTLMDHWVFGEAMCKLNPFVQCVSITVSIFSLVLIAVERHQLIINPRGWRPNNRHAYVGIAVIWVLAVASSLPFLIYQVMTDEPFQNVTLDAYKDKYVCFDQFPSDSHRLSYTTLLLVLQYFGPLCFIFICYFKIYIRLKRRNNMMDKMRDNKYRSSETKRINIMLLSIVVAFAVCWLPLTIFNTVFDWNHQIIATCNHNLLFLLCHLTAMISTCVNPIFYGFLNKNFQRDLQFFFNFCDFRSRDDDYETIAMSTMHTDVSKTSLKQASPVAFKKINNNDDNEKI
The assay can be described thus: IC50 of human NPY-Y1 blockers – cell-based, dose response (AID 1277). Format: functional.

A short description of assay [5]: Trypanosoma cruzi growth suppression in host cells – NIH3T3 host cells, beta-gal luminescence, confirmation (AID 2044).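 Also: intracellular parasites grown in NIH/3T3 mouse fibroblasts as host cells; luminescent beta-galactosidase reporter signal from transgenic T. cruzi replicating inside host cells; inhibitors lower the luminescence signal.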 Format: functional, cell-based.
A short description of assay [6]: NIH3T3 cell viability loss – ATP luminescence, mouse fibroblasts, counter-screen, dose response (AID 2010).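 Also: cells exposed to compound for about 90 hours before reading.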 It counts as functional, cell-based.
A short description of assay [7]: HEK-293T cell viability reduction – luminescence, B-cell screen hits, cytotoxicity control for BCR NF-kB inhibitor project, dose response (AID 489021).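 Also: HEK-293T cells carrying an NF-kB luciferase reporter; cells exposed to compound for about 14 hours before viability readout.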 It counts as functional, cell-based.
In another assay the test system is INS1. Briefly: INS-1E survival protection against cytokine death – cell-based, luminescence, retest, dose response (AID 449756).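 Also: cell death triggered by IL-1 beta plus TNF-alpha plus IFN-gamma mixture; protective hits raise ATP signal compared with cytokine alone wells.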 Format: functional. The following applies: Rattus norvegicus.
The target in a further assay is Protein Wnt-3a (Mus musculus, UniProt P27467). Briefly: antagonism of Wnt3a pathway luciferase reporter – Wnt-LIGHT cells, luminescence, selectivity assay for Gli-SUFU antagonist project, dose response (AID 651570).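 Also: Wnt-LIGHT reporter cells stimulated with conditioned medium from Wnt3a-producing cells.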 As to conditions: read-out: IC50_Mean. Format: functional.
Sequence of Protein Wnt-3a (P27467 whole entry): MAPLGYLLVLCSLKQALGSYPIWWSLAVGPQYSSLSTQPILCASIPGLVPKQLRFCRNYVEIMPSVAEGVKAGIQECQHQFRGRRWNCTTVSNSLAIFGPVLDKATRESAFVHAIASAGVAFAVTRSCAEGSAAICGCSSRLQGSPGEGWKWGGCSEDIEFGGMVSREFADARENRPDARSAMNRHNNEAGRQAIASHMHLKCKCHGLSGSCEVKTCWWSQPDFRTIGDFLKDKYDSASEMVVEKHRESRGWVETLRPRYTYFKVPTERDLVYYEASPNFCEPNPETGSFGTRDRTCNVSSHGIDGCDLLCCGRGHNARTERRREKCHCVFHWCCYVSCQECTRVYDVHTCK
The next assay deals with T3, Galanin receptor type 3 (Homo sapiens, UniProt O60755).
T3 sequence (O60755 whole entry): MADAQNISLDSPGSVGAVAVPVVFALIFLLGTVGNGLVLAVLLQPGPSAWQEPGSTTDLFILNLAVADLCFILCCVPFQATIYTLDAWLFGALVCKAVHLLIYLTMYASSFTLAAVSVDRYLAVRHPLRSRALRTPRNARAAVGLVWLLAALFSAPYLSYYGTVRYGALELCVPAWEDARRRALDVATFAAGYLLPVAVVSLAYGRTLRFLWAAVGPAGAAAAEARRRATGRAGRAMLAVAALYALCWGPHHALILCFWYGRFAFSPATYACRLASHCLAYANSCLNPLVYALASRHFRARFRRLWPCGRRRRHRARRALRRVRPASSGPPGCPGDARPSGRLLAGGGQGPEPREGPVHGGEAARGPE
Briefly: Fluorescence-based cell-based primary high throughput dose response assay to identify antagonists of the Galanin Receptor 3 (GalR3). Format: functional.

Another assay is described as follows: cells. It counts as functional, cell-based. The following applies: HEK-CNG.
The target in assay [8] is T4, Zinc finger protein mex-5 (Caenorhabditis elegans, UniProt Q9XUB2).
T4 sequence (Q9XUB2 whole entry): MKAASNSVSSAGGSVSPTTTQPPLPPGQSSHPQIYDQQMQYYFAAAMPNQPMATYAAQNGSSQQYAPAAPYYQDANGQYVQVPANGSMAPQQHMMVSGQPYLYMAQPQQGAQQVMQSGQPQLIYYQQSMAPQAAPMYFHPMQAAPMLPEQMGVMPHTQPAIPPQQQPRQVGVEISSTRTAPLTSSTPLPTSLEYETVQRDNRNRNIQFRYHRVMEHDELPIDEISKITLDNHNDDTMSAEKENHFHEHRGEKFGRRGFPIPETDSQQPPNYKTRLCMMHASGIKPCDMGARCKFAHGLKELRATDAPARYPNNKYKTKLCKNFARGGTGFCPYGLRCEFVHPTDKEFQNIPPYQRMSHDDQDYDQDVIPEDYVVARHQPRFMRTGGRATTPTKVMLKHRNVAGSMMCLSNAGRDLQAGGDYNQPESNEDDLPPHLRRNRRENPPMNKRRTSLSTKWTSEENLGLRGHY
The assay can be described thus: potency of MEX-5 RNA-binding blockers – biochemical, C. elegans, fluorescence polarization, dose response (AID 1960).

Another assay deals with Estrogen receptor (Homo sapiens, UniProt P03372).
Sequence of Estrogen receptor (P03372 whole entry): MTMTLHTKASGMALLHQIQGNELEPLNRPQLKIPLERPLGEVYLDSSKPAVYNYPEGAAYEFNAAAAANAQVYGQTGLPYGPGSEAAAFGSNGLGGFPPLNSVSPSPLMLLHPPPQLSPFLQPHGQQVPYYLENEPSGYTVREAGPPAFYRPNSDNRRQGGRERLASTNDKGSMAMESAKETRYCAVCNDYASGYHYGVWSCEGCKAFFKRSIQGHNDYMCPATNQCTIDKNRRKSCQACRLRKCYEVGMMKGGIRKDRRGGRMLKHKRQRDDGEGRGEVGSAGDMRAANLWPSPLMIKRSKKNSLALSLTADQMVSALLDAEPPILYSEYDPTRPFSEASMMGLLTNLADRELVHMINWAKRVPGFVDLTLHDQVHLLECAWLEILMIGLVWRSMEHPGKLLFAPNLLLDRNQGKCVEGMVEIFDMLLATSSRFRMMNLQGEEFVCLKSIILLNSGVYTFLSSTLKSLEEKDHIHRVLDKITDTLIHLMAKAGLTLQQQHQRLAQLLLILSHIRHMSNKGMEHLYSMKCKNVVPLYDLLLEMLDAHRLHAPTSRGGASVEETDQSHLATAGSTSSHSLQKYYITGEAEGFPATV
Another assay has as its target T5, Bcl-2-like protein 10 (Homo sapiens, UniProt Q9HD36).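 Also: fluorescence polarization from a fluorescein-labelled TR3 peptide binding purified Bcl-B.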
T5 sequence (Q9HD36 whole entry): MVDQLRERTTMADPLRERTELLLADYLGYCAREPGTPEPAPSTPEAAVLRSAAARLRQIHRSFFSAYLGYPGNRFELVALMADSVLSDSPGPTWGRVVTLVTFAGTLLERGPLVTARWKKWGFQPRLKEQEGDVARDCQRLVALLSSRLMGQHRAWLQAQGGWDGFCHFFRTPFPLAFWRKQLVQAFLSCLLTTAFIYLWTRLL
The assay can be described thus: Bcl-B/TR3 peptide binding disruption – biochemical, fluorescence polarization, FITC-TR3 peptide, selectivity assay for Bfl-1 inhibitor project, primary screen (AID 748). (In general: Polarisation of emitted light reports the rotation of a fluorescent probe.)

The target of assay [9] is T6, Estrogen receptor beta (Homo sapiens, UniProt Q92731).
T6 sequence (Q92731 whole entry): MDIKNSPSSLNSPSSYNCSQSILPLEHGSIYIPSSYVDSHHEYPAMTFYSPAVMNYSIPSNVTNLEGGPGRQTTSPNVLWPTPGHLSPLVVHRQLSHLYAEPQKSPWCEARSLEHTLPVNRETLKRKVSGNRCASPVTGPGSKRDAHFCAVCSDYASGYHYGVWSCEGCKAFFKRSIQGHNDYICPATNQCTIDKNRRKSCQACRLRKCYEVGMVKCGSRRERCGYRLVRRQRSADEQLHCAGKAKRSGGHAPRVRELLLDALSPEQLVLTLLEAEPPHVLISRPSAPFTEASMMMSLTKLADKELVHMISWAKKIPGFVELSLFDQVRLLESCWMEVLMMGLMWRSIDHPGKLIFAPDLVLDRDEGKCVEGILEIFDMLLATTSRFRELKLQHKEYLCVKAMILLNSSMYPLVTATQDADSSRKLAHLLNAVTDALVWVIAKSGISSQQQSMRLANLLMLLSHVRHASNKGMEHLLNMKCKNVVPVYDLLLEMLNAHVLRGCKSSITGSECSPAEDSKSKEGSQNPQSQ
Assay [10] has as its target T6, Estrogen receptor beta. Briefly: blockers of SRC-3 recruitment to ERβ – biochemical, ELISA, streptavidin-HRP readout, orthogonal assay, confirmation (AID 1060). Background: In an ELISA, binding on a coated surface is turned into a signal by an enzyme label.
The next assay concerns the target T7, Leucine aminopeptidase (Plasmodium falciparum 3D7, UniProt Q8IL11).
T7 sequence (Q8IL11 whole entry): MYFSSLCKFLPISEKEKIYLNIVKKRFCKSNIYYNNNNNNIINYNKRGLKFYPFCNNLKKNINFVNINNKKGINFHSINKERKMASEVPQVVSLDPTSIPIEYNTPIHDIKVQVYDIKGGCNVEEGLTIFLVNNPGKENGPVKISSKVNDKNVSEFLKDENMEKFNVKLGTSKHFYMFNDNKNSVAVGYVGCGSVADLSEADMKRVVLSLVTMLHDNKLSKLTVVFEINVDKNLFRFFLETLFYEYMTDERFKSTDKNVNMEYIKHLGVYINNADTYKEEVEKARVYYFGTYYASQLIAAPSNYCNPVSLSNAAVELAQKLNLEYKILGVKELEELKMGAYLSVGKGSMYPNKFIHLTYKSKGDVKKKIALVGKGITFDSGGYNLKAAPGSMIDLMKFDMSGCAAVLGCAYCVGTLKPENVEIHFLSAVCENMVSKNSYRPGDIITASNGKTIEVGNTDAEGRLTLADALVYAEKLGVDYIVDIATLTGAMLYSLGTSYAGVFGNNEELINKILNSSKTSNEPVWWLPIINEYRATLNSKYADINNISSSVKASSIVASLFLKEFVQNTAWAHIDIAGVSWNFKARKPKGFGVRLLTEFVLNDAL
The assay can be described thus: P. falciparum M17LAP inhibitors, primary screen, biochemical, fluorogenic H-Leu-NHMec substrate, 1536-well (AID 1619). It counts as functional.

The target in a further assay is Aspartyl aminopeptidase (Plasmodium falciparum 3D7, UniProt Q8I2J3). The assay can be described thus: Counterscreen for inhibitors of M1 and M17 aminopeptidases: QFRET-based biochemical high throughput dose response assay for inhibitors of the Plasmodium falciparum M18 Aspartyl Aminopeptidase (PFM18AAP). [Related PubChem assays: 1619 (Screening assay (M17LAP inhibitors).), 1445 (Screening assay (M1AAP inhibitors).)].
Sequence of Aspartyl aminopeptidase (Q8I2J3 whole entry): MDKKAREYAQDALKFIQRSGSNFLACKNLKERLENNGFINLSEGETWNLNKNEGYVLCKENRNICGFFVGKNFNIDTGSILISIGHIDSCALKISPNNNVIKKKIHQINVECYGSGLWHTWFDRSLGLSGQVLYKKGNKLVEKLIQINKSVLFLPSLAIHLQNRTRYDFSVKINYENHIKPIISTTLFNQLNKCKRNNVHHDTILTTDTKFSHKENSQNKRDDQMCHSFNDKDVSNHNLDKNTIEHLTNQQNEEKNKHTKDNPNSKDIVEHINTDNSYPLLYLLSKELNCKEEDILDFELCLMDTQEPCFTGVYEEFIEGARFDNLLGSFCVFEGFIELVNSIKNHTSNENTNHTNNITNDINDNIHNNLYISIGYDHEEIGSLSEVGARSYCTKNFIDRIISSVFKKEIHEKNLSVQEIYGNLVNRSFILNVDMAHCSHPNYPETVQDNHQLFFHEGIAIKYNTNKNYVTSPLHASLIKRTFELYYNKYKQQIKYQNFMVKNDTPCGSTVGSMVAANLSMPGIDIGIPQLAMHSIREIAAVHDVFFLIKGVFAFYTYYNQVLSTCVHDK

A further assay addresses Procathepsin L (Homo sapiens, UniProt P07711). The assay can be described thus: CTSL1 protease inhibition – biochemical, QFRET, 1536-well, counter-screen for M1/M17 aminopeptidase inhibitor project, dose response (AID 2214).
The target of assay [11] is T8, Long-chain-fatty-acid--AMP ligase FadD28 (Mycobacterium tuberculosis, UniProt P9WQ59).
T8 sequence (P9WQ59 whole entry): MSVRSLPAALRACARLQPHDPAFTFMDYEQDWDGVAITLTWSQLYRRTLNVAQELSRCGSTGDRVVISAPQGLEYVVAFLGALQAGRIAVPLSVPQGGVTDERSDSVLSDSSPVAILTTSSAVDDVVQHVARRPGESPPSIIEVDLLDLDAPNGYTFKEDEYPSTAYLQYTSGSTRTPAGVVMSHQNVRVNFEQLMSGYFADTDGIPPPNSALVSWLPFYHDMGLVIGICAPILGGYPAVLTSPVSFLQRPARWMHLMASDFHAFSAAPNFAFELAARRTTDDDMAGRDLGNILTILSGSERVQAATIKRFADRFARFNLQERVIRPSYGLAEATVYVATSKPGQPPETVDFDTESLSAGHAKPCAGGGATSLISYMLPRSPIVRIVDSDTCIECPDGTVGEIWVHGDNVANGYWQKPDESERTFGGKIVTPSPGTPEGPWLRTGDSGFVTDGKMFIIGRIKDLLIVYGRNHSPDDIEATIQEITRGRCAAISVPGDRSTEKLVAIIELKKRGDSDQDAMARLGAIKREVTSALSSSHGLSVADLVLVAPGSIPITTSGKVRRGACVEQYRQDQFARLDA
The assay can be described thus: Fluorescence polarization aasay to screen for inhibitors that compete for the binding of FadD28 to a bisubstrate Measured in Biochemical System Using Plate Reader - 2147-01_Inhibitor_Dose_CherryPick_Activity. It counts as functional, Mycobacterium tuberculosis H37Rv.

Sequence of Procathepsin L (P07711 whole entry): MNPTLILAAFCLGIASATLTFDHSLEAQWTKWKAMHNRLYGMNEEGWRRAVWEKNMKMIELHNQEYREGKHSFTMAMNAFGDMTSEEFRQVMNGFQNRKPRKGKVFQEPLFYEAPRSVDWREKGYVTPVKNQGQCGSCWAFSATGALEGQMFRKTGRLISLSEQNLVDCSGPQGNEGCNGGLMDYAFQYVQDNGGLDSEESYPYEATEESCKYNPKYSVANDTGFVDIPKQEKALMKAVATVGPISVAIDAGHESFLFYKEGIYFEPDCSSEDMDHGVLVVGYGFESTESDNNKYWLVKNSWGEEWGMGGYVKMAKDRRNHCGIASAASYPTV
Sequence of Inward rectifier potassium channel 2 (P35561 whole entry): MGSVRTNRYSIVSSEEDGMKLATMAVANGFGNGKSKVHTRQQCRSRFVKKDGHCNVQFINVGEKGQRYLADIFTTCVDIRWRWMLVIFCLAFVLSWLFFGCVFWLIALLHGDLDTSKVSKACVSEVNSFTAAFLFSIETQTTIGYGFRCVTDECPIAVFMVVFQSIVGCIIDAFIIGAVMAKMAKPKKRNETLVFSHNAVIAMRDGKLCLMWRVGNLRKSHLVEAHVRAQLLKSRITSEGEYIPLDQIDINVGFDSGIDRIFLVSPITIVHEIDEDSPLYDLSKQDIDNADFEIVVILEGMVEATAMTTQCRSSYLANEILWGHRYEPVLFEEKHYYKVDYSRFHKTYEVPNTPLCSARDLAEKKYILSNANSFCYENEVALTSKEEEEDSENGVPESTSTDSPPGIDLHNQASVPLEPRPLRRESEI

As to `CC(O)c1ccc2c(c1)Nc1ccccc1S2` (stereo unspecified), the IC50 at NADPH oxidase 1 was 363 nM (active).

Turning to `COc1ccc(CNCc2ccc(OC(F)(F)F)cc2)cc1`, the IC50 in [1] is 1.64 µM (active).

For `COc1ccc(-[n+]2c(-c3ccc(Cl)cc3)cn3c2CCc2ccccc2-3)cc1`, the EC50 (in general, the concentration giving half of the maximal effect) was > 150 µM (inactive) in assay [2], 240 nM (active) in assay [5], > 60 µM (not active) in assay [6] and > 29.9 µM (inactive) in “cells”. Besides, the IC50 was 10.3 µM (not active) in assay [3]; 7.36 µM (active) in assay [4]; > 80 µM (inactive) in assay [7]; 25.6 µM (inactive) on Protein Wnt-3a; 5.02 µM (active) at Galanin receptor type 3. Moreover, in the assay with INS1, the AC50 (in general, the midpoint of the concentration-response curve, whichever way the signal moves) was 2.08 µM (active).

For `Cc1cc(/C=C2/C(=O)NC(=O)N(c3ccccc3)C2=O)c(C)n1-c1ccc(F)cc1`, the EC50 in assay [8] is 77.3 µM (active). The IC50 on Estrogen receptor is reported as > 50 µM (not active).

In the case of `O=C(COC(=O)c1cccs1)NCc1ccco1`, the results for the IC50 at Bcl-2-like protein 10, against Estrogen receptor beta [9] and on Estrogen receptor beta [10] were 85.1 µM (inactive), > 50 µM (not active) and 8.95 µM (not active), respectively.

`CCOc1ccc(NC(=O)C2C(C(=O)O)C3(Cl)C(Cl)=C(Cl)C2(Cl)C3(Cl)Cl)cc1` (stereo unspecified): the results for the IC50 on Leucine aminopeptidase, on Aspartyl aminopeptidase and against Procathepsin L were < 1 µM (active), > 73.5 µM (not active) and > 59.6 µM (not active), respectively. Also, in [11], the AC50 is 11.5 µM (active).
